Experiment [1] has as its target T1, GnRH receptor (Homo sapiens, UniProt P30968).
T1 sequence (P30968 1-328): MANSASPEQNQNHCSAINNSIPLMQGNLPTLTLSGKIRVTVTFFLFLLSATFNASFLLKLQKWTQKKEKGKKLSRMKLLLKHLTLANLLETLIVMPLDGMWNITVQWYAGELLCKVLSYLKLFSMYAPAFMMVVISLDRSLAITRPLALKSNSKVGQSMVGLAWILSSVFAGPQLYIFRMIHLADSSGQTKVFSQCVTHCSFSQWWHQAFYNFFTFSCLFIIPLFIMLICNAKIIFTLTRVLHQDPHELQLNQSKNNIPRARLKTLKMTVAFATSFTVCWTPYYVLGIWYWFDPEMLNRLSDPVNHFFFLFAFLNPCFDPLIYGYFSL
In words: NFAT reporter (luciferase) gene expression assay for antagonistic effect on GnRH receptor, HEK293 transformed with pcDNA3.1/GnRH receptor and pGL4/NFAT promoter. The class given is cell-based. On the procedure:
For evaluation of antagonistic effect on GnRH receptor, double-transformed cell line, HEK293 (ATCC CRL-1573) which is transformed with pcDNA3.1/GnRH receptor and pGL4/NFAT promoter, was employed.
To conduct a GnRH receptor assay, the HEK293 (ATCC CRL-1573) cell line was diluted at a density of 3×10^4 cells/well in a DMEM medium supplemented with 10% FBS, 1% Penicillin-Streptomycin, and plated into polylysine-coated 96-well plates having a white-clear bottom, followed by incubating the cells at 37° C. for 24 hrs. Then, the medium was changed with a serum-free DMEM medium (1% Penicillin-Streptomycin), and the cells were incubated for an additional 16 hrs before use.
Test compounds were added to the wells in an amount of 1 μM to 0.01 nM, respectively, and further incubated for 1 hr. Then, leuprolide acetate as a ligand (Sigma) was added to the wells in an amount of 1 nM or 20 nM and subjected to an additional incubation for 6 hrs. The reagent of Luciferase assay system (Promega, Cat. No. E1500) was added to the wells and luminescence was measured using a luminometer (PerkinElmer, VICTOR3™, 1420 Multilabel Counter). The compound of formula 10b described in J. Med. Chem. 2008, 51, 7478 was used as a comparative compound.
Each sample was analyzed at a 6-dose level and the NFAT reporter inhibitory rate (%) of the inventive compounds was calculated according to the following equation based on the measured luminescence. Inhibition (%)={1−(compound−negative control)/(positive control−negative control)}×100 [Equation]
wherein, positive control is GnRH treated group; and negative control is non-treated group.

The target in experiment [2] is T1, GnRH receptor. As to the kind of experiment: GnRH receptor-membrane binding assay ([125I]-D-Trp6-LHRH displacement). Particulars: for inhibition at 0.01 µM: read-out: GnRH binding inhibition (%) at 10 nM; for inhibitory effect compared with compounds comprising alkyl group (Examples 1-2 and 1-3): benzyl versus alkyl substituent at spiro-piperidine, comment on Table 10 (binding and NFAT reporter). Set-up: purchased PerkinElmer; host or cells: CHO-K1 (ATCC CCL-61), stably transfected. Here is the method:
A GnRH receptor membrane binding assay was carried out for the compounds of the present invention by employing a membrane substrate (PerkinElmer) isolated from CHO-K1 cells (ATCC CCL-61) stably transfected with a GnRH receptor.
A reaction was initiated by the addition of a 0.2 nM [^125I]-labeled D-Trp^6-LHRH peptide and the GnRH receptor membrane substrate at a density of 1 μg/250 μL/well, together with the inventive compounds at various concentrations ranging from 0.1 nM to 100 nM, to a binding buffer composed of 25 mM Hepes (pH 7.4), 10 mM MgCl2, 1 mM CaCl2 and 0.5% BSA (pH 7.4). The reaction mixture was incubated at 27° C. for 1 hr and subjected to vacuum suction for binding to a filter (Fitermat A, PerkinElmer). The filter was washed several times with 50 mM tris-HCl buffer to terminate the reaction. The radioactivity binding to the filter was measured using MicroBeta2 TriLux (PerkinElmer). The binding inhibition rate (%) of the inventive compounds were analyzed on the basis of the measured radioactivity, and IC50 value was calculated using a non-linear least square regression method with Prism (GraphPad, Inc.).

[3] abbreviates: compound at 10 nM, 0.2 nM [125I]-D-Trp6-LHRH, CHO-K1 GnRH receptor membrane.
Setting [4] is: HEK293, read-out: NFAT reporter activity inhibition (%) at 100 nM.
The mark [5] stands for this setting: compound at 100 nM, leuprolide acetate as ligand, HEK293, read-out: NFAT reporter activity inhibition (%) at 100 nM.

The record followed here is patent publication US9481684B2, “Gonadotropin releasing hormone receptor antagonists, method for the preparation thereof and pharmaceutical composition comprising the same” (SK CHEMICALS CO., LTD., priority 2012, dated 2016).

Where two headings read alike, the source gives them in different places.

`Cc1cccc(C(Cn2c(=O)c3c(n(Cc4c(F)cccc4C(F)(F)F)c2=O)COC32CCN(Cc3ccc(C(F)(F)F)o3)CC2)NCCCC(=O)O)n1` (stereo not shown) [Example 36, 4-((2-(1-(2-fluoro-6-(trifluoromethyl)benzyl)-2,4-dioxo-1′-((5-(trifluoromethyl)furan-2-yl)methyl)-1H-spiro[furo[3,4-d]pyrimidine-5,4′-piperidin]-3(2H,4H,7H)-yl)-1-(6-methylpyridin-2-yl)ethyl)amino)butanoic acid]: the inhibition at 0.01 µM in experiment [1] (compound at 10 nM, leuprolide acetate as ligand, HEK293) stood at 88.2%; in experiment [2] (setting [3]), 88%.

For the molecule `CC(C)(C)CN1CCC2(CC1)OCc1c2c(=O)n(C[C@H](N)c2ccccc2)c(=O)n1Cc1c(F)cccc1C(F)(F)F` [Example 1-3, (R)-3-(2-amino-2-phenylethyl)-1-(2-fluoro-6-(trifluoromethyl)benzyl)-1′-neopentyl-1H-spiro[furo[3,4-d]pyrimidine-5,4′-piperidine]-2,4(3H,7H)-dione], in experiment [1] (setting [4]), the inhibition at 0.1 µM was determined as 15%.

Consider `N[C@@H](Cn1c(=O)c2c(n(Cc3c(F)cccc3C(F)(F)F)c1=O)CCC21CCN(Cc2ccc(C(F)(F)F)o2)CC1)c1ccccc1` [Example 3-5, (R)-3-(2-amino-2-phenylethyl)-1-(2-fluoro-6-(trifluoromethyl)benzyl)-1′-((5-(trifluoromethyl)furan-2-yl)methyl)-6,7-dihydrospiro[cyclopenta[d]pyrimidine-5,4′-piperidine]-2,4(1H,3H)-dione], for which the inhibition at 0.1 µM in experiment [1] (setting [5]) came to 99%. Also, the inhibition at 0.01 µM in experiment [2] (setting [3]) was 101%.

As for `N[C@@H](Cn1c(=O)c2c(n(Cc3c(F)cccc3F)c1=O)COC21CCN(Cc2ccc(C(F)(F)F)o2)CC1)c1ccccc1` [Example 1-42, (R)-3-(2-amino-2-phenylethyl)-1-(2,6-difluorobenzyl)-1′-((5-(trifluoromethyl)furan-2-yl)methyl)-1H-spiro[furo[3,4-d]pyrimidine-5,4′-piperidine]-2,4(3H,7H)-dione], the inhibition at 0.1 µM in experiment [1] (setting [5]) was 82%. For the same molecule, the inhibition at 0.01 µM in experiment [2] (setting [3]) was determined as 93.9%.

Take `N[C@@H](Cn1c(=O)c2c(n(Cc3c(F)cccc3C(F)(F)F)c1=O)COC21CCN(Cc2cccc3nonc23)CC1)c1ccccc1` [Example 1-25, (R)-3-(2-amino-2-phenylethyl)-1′-(benzo[c][1,2,5]oxadiazol-4-ylmethyl)-1-(2-fluoro-6-(trifluoromethyl)benzyl)-1H-spiro[furo[3,4-d]pyrimidine-5,4′-piperidine]-2,4(3H,7H)-dione]: the inhibition at 0.1 µM in experiment [1] (setting [5]) came to 56%. Moreover, in experiment [2] (setting [3]), the inhibition at 0.01 µM amounted to 91.3%.

For `N#Cc1cccc(CN2CCC3(CC2)OCc2c3c(=O)n(C[C@H](N)c3ccccc3)c(=O)n2Cc2c(F)cccc2C(F)(F)F)c1` [Example 1-15, (R)-3-((3-(2-amino-2-phenylethyl)-1-(2-fluoro-6-(trifluoromethyl)benzyl)-2,4-dioxo-2,3,4,7-tetrahydro-1H-spiro[furo[3,4-d]pyrimidine-5,4′-piperidine]-1′-yl)methyl)benzonitrile], in experiment [1] (setting [4]), the inhibition at 0.1 µM is 67%. For the same molecule, in experiment [2], the “inhibitory effect compared with compounds comprising alkyl group (Examples 1-2 and 1-3)” value is “improved inhibitory effect”; the inhibition at 0.01 µM stood at 91.3%.

On to `COCCN1CCC2(CC1)OCc1c2c(=O)n(C[C@H](N)c2ccccc2)c(=O)n1Cc1c(F)cccc1C(F)(F)F` [Example 1-2, (R)-3-(2-amino-2-phenylethyl)-1-(2-fluoro-6-(trifluoromethyl)benzyl)-1′-(2-methoxyethyl)-1H-spiro[furo[3,4-d]pyrimidine-5,4′-piperidine]-2,4(3H,7H)-dione], for which the inhibition at 0.01 µM in experiment [2] (setting [3]) came to 50.8%.

As for `COc1cccc(CN2CCC3(CC2)OCc2c3c(=O)n(C[C@H](N)c3ccccc3)c(=O)n2Cc2c(F)cccc2C(F)(F)F)c1` [Example 1-14, (R)-3-(2-amino-2-phenylethyl)-1-(2-fluoro-6-(trifluoromethyl)benzyl)-1′-(3-methoxybenzyl)-1H-spiro[furo[3,4-d]pyrimidine-5,4′-piperidine]-2,4(3H,7H)-dione], in experiment [1] (setting [4]), the inhibition at 0.1 µM was found to be 34%. Also, the inhibition at 0.01 µM in experiment [2] is 96%.

`Cc1ccccc1CN1CCC2(CC1)OCc1c2c(=O)n(C[C@H](N)c2ccccc2)c(=O)n1Cc1c(F)cccc1C(F)(F)F` [Example 1-26, (R)-3-(2-amino-2-phenylethyl)-1-(2-fluoro-6-(trifluoromethyl)benzyl)-1′-(2-methylbenzyl)-1H-spiro[furo[3,4-d]pyrimidine-5,4′-piperidine]-2,4(3H,7H)-dione]: in experiment [1] (setting [5]), the inhibition at 0.1 µM is 22%. In experiment [2] (setting [3]), the inhibition at 0.01 µM is 102%.

As to `COC(=O)c1cccc(CN2CCC3(CC2)OCc2c3c(=O)n(C[C@H](N)c3ccccc3)c(=O)n2Cc2c(F)cccc2C(F)(F)F)c1` [Example 1-19, (R)-methyl 3-((3-(2-amino-2-phenylethyl)-1-(2-fluoro-6-(trifluoromethyl)benzyl)-2,4-dioxo-2,3,4,7-tetrahydro-1H-spiro[furo[3,4-d]pyrimidine-5,4′-piperidin]-1′-yl)methyl)benzoate], the inhibition at 0.1 µM in experiment [1] (setting [5]) came to 89%. Further, the “inhibitory effect compared with compounds comprising alkyl group (Examples 1-2 and 1-3)” value in experiment [2] is “improved inhibitory effect”. Besides, the inhibition at 0.01 µM in experiment [2] (setting [3]) is 97.5%.

On to `N[C@@H](Cn1c(=O)c2c(n(Cc3c(F)cccc3C(F)(F)F)c1=O)COC21CCN(Cc2ccc(Cl)cc2)CC1)c1ccccc1` [Example 1-51, (R)-3-(2-amino-2-phenylethyl)-1′-(4-chlorobenzyl)-1-(2-fluoro-6-(trifluoromethyl)benzyl)-1H-spiro[furo[3,4-d]pyrimidine-5,4′-piperidine]-2,4(3H,7H)-dione], for which the inhibition at 0.1 µM in experiment [1] (setting [5]) worked out at 30%. Moreover, in experiment [2] (setting [3]), the inhibition at 0.01 µM was found to be 95.6%.

As for `N[C@@H](Cn1c(=O)c2c(n(Cc3c(F)cccc3C(F)(F)F)c1=O)COC21CCN(Cc2ccccc2F)CC1)c1ccccc1` [Example 1-29, (R)-3-(2-amino-2-phenylethyl)-1-(2-fluoro-6-(trifluoromethyl)benzyl)-1′-(2-fluorobenzyl)-1H-spiro[furo[3,4-d]pyrimidine-5,4′-piperidine]-2,4(3H,7H)-dione], in experiment [1] (setting [5]), the inhibition at 0.1 µM worked out at 58%. Also, in experiment [2] (setting [3]), the inhibition at 0.01 µM was found to be 104%.

As to `N[C@@H](Cn1c(=O)c2c(n(Cc3c(F)cccc3C(F)(F)F)c1=O)COC21CCN(Cc2cocn2)CC1)c1ccccc1` [Example 1-63, (R)-3-(2-amino-2-phenylethyl)-1-(2-fluoro-6-(trifluoromethyl)benzyl)-1′-(oxazol-4-ylmethyl)-1H-spiro[furo[3,4-d]pyrimidine-5,4′-piperidine]-2,4(3H,7H)-dione], the inhibition at 0.1 µM in experiment [1] (setting [5]) was found to be 18%. Besides, in experiment [2] (setting [3]), the inhibition at 0.01 µM is 88.6%.

Regarding `Cc1ccc(CN2CCC3(CC2)OCc2c3c(=O)n(C[C@H](N)c3ccccc3)c(=O)n2Cc2c(F)cccc2C(F)(F)F)cc1` [Example 1-50, (R)-3-(2-amino-2-phenylethyl)-1-(2-fluoro-6-(trifluoromethyl)benzyl)-1′-(4-methylbenzyl)-1H-spiro[furo[3,4-d]pyrimidine-5,4′-piperidine]-2,4(3H,7H)-dione], in experiment [1] (setting [4]), the inhibition at 0.1 µM worked out at 17%. Further, the inhibition at 0.01 µM in experiment [2] turned out to be 96.3%.
